Source: patent publication US12655041B2, “Method for operating reverse osmosis membrane device, a slime control method, and a water treatment device” (priority 2021, dated 2026)

Tests used:
[1] = system: slime in a reverse osmosis membrane; assay: Test Example 1: evaluation of slime inhibition in reverse osmosis membrane (membrane fouling simulator, days to 100 kPa differential pressure); set-up: species or system microorganism; details: days for differential pressure to reach 100 kPa; substrates ethanol 50 mg/L as C, ammonium chloride 10 mg/L as N, sodium dihydrogen phosphate 0.5 mg/L as P; 25° C.; no chemical added: 8
Protocol: (§1) A substrate was added to raw water, and a biofouling effect of a microorganism was accelerated. Specifically, as substrates, ethanol, ammonium chloride and sodium dihydrogen phosphate were added to raw water so that the concentrations reached 50 mg/L as C, 10 mg/L as N and 0.5 mg/L as P, respectively, thereby producing water to be treated. The pH of the raw water (water to be treated) was 6 to 8, TOC was 1 mg/L, ORP was 300 mV, and the water temperature was 25° C.
This water to be treated was pressurized to 1.5 MPa with a pump and supplied as supply water (the water amount was 100 mL/min, the water pressure was 0.2 MPa, and the water temperature was 25° C.) to a concentrate compartment of an RO membrane device, and an RO membrane treatment was performed. […]
(§2) Upon the evaluation of slime inhibition in a reverse osmosis membrane, the number of days taken for the differential pressure to increase up to 100 kPa under conditions shown in Table 1 was measured using a membrane fouling simulator that is in Non-Patent Literature 1 (J. S. Vrouwenvelder et. al.), and the day where this differential pressure was reached was regarded as a day when biofouling occurred, that is, an occlusion day. It is evaluated that, as the number of days taken until this occlusion increases, slime can be inhibited more favorable.

[2] = system: slime in a reverse osmosis membrane; assay: Test Example 4: number of days for the differential pressure to reach 100 kPa; set-up: species or system microorganism; details: days for differential pressure to reach 100 kPa; substrates 30 mg/L as C, 10 mg/L as N, 0.5 mg/L as P; 20° C.; no addition: 10
Protocol: as §1
This water to be treated was pressurized to 1.5 MPa with a pump and supplied as supply water (the water amount was 100 mL/min, the water pressure was […], and the water temperature was 25° C.) to a concentrate compartment of an RO membrane device, and an RO membrane treatment was performed. As the RO membrane device, a device in which one vessel was filled with a 4-inch spiral RO membrane element of an aromatic polyamide-based RO membrane (manufactured by Nitto Denko Corporation, ES20) was used. The flow rate of the supply water was 3 to 10 m^3/h per 8-inch spiral module. A change in the differential pressure means a change in the difference of the pressure at each water-passing time after the beginning of measurement from 0 kPa that is a set pressure at the time of the beginning of the measurement.
as §2
A test was performed under the same conditions as in <Test Example 1> except that water to be treated prepared by adding, as substrates, ethanol, ammonium chloride and sodium dihydrogen phosphate to raw water so that the concentrations reached 30 mg/L as C, 10 mg/L as N and 0.5 mg/L as P, respectively, was used, the water temperature of the water to be treated was set and adjusted to 20° C., and the addition periods and addition concentrations of the slime inhibitors were set as shown in Table 2.
The oxidation-based slime inhibitor is continuously added “for 30 minutes”, and the water to be treated containing the chemical is continuously passed through the RO membrane device downstream thereof “for 30 minutes”.
The organic-based slime inhibitor is continuously added “for 30 minutes”, and the water to be treated containing the chemical is continuously passed through the RO membrane device downstream thereof “for 30 minutes”. […]

SMILES	Number of days until occlusion [1] [days]	Number of days until occlusion [2] [days]
Cn1sc(Cl)cc1=O [1-3, 5-chloro-2-methyl-4-isothiazolin-3-one]	15	
O=S(=O)([O-])NCl.[Na+] [4-2, Sodium monochlorosulfamate]		12
O=S(=O)([O-])NCl.[Na+] [4-3, Sodium monochlorosulfamate]		30
Cn1sc(Cl)cc1=O [4-4, 5-chloro-2-methyl-4-isothiazolin-3-one]		32
Cn1sc(Cl)cc1=O [4-5, 5-chloro-2-methyl-4-isothiazolin-3-one]		18
O=S(=O)([O-])NCl.[Na+] [Comparative Example 1-2, Sodium monochlorosulfamate]	12	
